Structures can show the parent of a compound that is named as a salt. Where two headings read alike, the source gives them in different places.
Tests used:
Dopamine D2 receptor = molecular target: T1, Dopamine D2 receptor (Rattus norvegicus, UniProt P61169); experiment: Selectivity for receptors: dopamine D2 receptor, inhibition of [^3 H] raclopride binding to rat striatal membrane; conditions: [^3 H] raclopride 1 nM, symbol, no activity in 10 μM, read-out: Dopamine D2 receptor antagonizing action (IC50)
T1 construct: The rat striatum was homogenized in 50 mM Tris hydrochloride buffer; from tissue; host or cells: rat striatal membranes
T1 sequence (P61169 whole entry): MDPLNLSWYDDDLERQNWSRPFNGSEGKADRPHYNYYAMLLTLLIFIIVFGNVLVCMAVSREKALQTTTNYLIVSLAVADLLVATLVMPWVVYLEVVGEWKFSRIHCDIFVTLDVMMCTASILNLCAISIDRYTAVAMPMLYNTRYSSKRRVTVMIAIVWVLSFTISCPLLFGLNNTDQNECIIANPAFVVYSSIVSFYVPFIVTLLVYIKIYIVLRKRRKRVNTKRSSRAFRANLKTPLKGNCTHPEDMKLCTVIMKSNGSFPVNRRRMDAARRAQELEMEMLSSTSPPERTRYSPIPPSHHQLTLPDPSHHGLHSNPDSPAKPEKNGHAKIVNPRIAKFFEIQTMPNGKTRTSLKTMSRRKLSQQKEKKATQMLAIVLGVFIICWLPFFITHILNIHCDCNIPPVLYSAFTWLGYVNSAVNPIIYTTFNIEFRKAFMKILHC
Description: (§1) The selectivity for receptors of the quinolinecarboxylic acid derivatives of the present invention was examined by the following method.
The affinity to dopamine 2 (D2) receptor was examined according to the method described in MALMBERG, A. et al., Mol Pharmacol., 43, 749-754 (1993).
The affinity for D2 receptor was studied in terms of the inhibition of [^3 H] raclopride (Daiichi Kagaku Yakuhin Co.) binding to rat striatal membrane. The rat striatum was homogenized in 50 mM Tris hydrochloride buffer (pH 7.4) followed by centrifugation at 48,000 G. The pellet was washed once with Tris hydrochloride buffer. Then the pellet was suspended in 50 mM Tris hydrochloride buffer (containing 120 mM NaCl, 5 mM KCl, 2 mM CaCl2, 1 mM MgCl2, pH 7.4) and provided for use as the membrane preparation. The membrane preparation (0.5 mg protein/ml) was reacted with 1 nM [3H] raclopride at 25° C. for 60 minutes. After the reaction, the membrane was caught by a harvester. Non-specific binding was defined as that taken in the presence of 10 μM haloperidol.

5-HT1A receptor = molecular target: T2, 5-HT1A receptor (Rattus norvegicus, UniProt P19327); experiment: Selectivity for receptors: 5-HT1A receptor, inhibition of [^3 H] 8-OH-DPAT binding to rat cerebral cortex membrane
T2 construct: The rat cerebral cortex was homogenized in 50 mM Tris hydrochloride buffer; from tissue; host or cells: rat cerebral cortex membranes
T2 sequence (P19327 1-422): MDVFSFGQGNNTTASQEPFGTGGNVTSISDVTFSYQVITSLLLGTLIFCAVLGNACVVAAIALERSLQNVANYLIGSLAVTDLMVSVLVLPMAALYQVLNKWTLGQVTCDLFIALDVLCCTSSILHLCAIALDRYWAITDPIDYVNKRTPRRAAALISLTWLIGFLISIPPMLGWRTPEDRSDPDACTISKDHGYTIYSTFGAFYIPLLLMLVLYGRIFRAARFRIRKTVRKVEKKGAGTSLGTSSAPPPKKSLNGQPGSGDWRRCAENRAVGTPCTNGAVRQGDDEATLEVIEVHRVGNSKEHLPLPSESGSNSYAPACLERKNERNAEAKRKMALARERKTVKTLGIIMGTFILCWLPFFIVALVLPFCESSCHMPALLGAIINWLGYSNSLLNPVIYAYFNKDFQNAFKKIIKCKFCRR
Description: as §1
The affinity to serotonin 1A (5-HT1A) receptor was examined by the method described in […], J. R. et al., Biochem. Pharmacol., 12, 1943-1949 (1986).
The affinity to serotonin 1A (5-HT1A) was examined in terms of inhibition of [^3 H] 8-OH-DPAT (Daiichi Kagaku Yakuhin Co.) binding to rat cerebral cortex membrane. The rat cerebral cortex was homogenized in 50 mM Tris hydrochloride buffer (pH 7.4) followed by centrifugation at 48,000 G.
The pellet was washed once with Tris hydrochloride buffer. Then the pellet was suspended in 50 mM Tris hydrochloride buffer (supplemented with 0.01 mM pargyline and 0.1% ascorbic acid, pH 7.7) and provided for use as the membrane preparation. The membrane specimen was reacted with 1 nM [^3 H] 8-OH-DPAT at 37° C. for 15 minutes. After the reaction, the membrane was caught by a harvester. Non-specific binding was defined as that taken in the presence of 10 μM 5-HT.

[1] = molecular target: T3, serotonin 4 receptor (5-HT4) (Cavia porcellus, UniProt O70528); experiment: Stimulating activity on serotonin 4 receptor (twitch response in guinea pig ileum); type: cell-based
T3 construct: from tissue; host or cells: longitudinal muscle strips of guinea pig ileum (Harley guinea pigs)
T3 sequence (O70528 whole entry): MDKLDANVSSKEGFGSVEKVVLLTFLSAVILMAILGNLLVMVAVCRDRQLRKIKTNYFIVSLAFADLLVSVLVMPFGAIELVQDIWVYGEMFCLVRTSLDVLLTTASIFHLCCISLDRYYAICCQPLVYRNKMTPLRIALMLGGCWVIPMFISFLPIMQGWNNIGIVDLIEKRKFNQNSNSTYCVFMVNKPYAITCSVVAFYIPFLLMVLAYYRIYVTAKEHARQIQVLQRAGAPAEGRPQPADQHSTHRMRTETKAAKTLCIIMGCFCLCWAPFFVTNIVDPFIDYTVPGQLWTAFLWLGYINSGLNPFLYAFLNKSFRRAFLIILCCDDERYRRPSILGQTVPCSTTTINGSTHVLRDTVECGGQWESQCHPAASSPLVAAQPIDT
Description: Stimulating activity on serotonin 4 receptor
From Harley guinea pigs weighing 250 to 400 g, a section of ileum 10 to 20 cm proximal to the ileocecal junction was removed. Longitudinal muscle strips obtained from the ileum were used for this assay. The preparations were suspended in Krebs' solution at 32 to 34° C., bubbled continuously with 95% O2 and 5% CO2, and subjected to initial tension of about 0.8 g. Responses were recorded isometrically. Twitch responses were evoked by electrical stimulation (0.2 Hz, 1 msec pulse duration). The preparations were stimulated at supramaximal voltage for 2 to 3 hours, and were then allowed to equilibrate for about 1 hour at submaximal voltage. […] The preparations were left for at least 45 minutes before cumulative addition of each agonist.
The quinolinecarboxylic acid derivatives of the present invention were employed as sample compounds. For comparison, the following compounds were employed. These compounds were diluted by dissolving them in distilled water or in DMSO.
The data obtained was analyzed by RS1 (BBN Software Product Co.).

5-HT3 receptor = molecular target: T4, 5-HT3 receptor (Rattus norvegicus, UniProt P35563); experiment: Selectivity for receptors: 5-HT3 receptor, inhibition of [^3 H]GR65630 binding to rat cerebral cortex membrane; conditions: [^3 H]GR65630 0.2 nM, read-out: 5-HT3 receptor antagonizing action (IC50)
T4 construct: The rat cerebral cortex was homogenized in 50 mM Tris hydrochloride buffer; from tissue; host or cells: rat cerebral cortex membranes
T4 sequence (P35563 24-483): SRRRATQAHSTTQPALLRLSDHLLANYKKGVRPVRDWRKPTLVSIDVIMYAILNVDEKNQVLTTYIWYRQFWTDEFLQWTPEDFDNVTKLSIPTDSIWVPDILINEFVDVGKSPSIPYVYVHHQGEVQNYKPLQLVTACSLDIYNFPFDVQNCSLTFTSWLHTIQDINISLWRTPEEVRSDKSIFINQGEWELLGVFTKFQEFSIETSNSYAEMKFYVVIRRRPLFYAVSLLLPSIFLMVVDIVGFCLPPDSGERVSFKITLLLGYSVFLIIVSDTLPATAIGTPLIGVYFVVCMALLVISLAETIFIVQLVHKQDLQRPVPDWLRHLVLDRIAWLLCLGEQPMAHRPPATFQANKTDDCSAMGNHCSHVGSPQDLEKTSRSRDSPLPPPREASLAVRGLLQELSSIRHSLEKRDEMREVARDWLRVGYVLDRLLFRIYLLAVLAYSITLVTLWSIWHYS
Description: as §1
The affinity for serotonin 3 receptor was examined by the method described in […], G. J. et al., Nature (London), 330, 746-748 (1987).
The affinity to serotonin 3 (5-HT3) was examined in terms of inhibition of [^3 H]GR65630 binding (Daiichi Kagaku Yakuhin Co.) binding to rat cerebral cortex membrane. The rat cerebral cortex was homogenized in 50 mM Tris hydrochloride buffer (pH 7.4) followed by centrifugation at 48,000 G. The precipitates were washed once with Tris hydrochloride buffer. Then the precipitates were suspended in 50 mM Tris hydrochloride buffer and provided for use as the membrane preparation. The membrane preparation was reacted with 0.2 nM [^3 H]GR65630 at 37° C. for 30 minutes. After the reaction, the membrane was caught by a harvester. Non-specific binding was defined as the binding taken in the presence of 1 μM zacopride.

5-HT4 receptor = molecular target: T5, 5-HT4 receptor (Cavia porcellus, UniProt O70528); experiment: Inhibition of 5-HT4 receptor-binding ([^3 H]GR113808 binding in guinea pig ileum)
T5 construct: The longitudinal muscle strip from guinea pig was homogenized; from tissue; host or cells: membranes of guinea pig ileum longitudinal muscle strip
T5 sequence (O70528 whole entry): as the sequence (O70528 whole entry) above
Description: Effect on inhibition of 5-HT4 receptor-binding
The effect on inhibition of 5-HT4 receptor-binding of the quinolinecarboxylic acid derivatives of the present invention was examined according to the method described in GROSSMAN et al., Br. J. Pharmacol., 109, 618 (1993).
The longitudinal muscle strip from guinea pig was homogenized in 0.32M sucrose with a Teflon-glass homogenizer. After centrifugation at 900 G for 10 minutes, the upper fraction of lipids and precipitates was discarded and the supernatant was centrifuged at 100,000 G (48,000 rpm) for an hour. The pellet was resuspended in 50 mM HEPES buffer. After incubation at 37° C. for 30 minutes, the suspension was centrifuged at 48,000 rpm for 20 minutes. The pellet was suspended in HEPES buffer supplemented with 10^-6 M pargyline and 0.1% ascorbic acid. The suspension was used for the binding assay.
Non-specific binding was defined as that taken in the presence of 3×10^-5 M 5-HT. B/F separation was performed through GF/B filter treated with 0.1% polyethyleneimine, using a cell harvester. Washing was performed once.

[2] = system: gastrointestinal motor function; conditions: TALLEY, N. J., 1992; cited from earlier work
[3] = [^3 H] 8-OH-DPAT 1 nM, rat cerebral cortex membrane, symbol, no activity in 10 μM, read-out: 5-HT1A receptor antagonizing action (IC50)

| SMILES | IC50 (Dopamine D2 receptor) | IC50 (5-HT1A receptor; [3]) | EC50 [1] | IC50 (5-HT3 receptor) | IC50 (5-HT4 receptor) | IC50 (5-HT1A receptor) | effect on gastrointestinal motor function and conditions [2] |
| --- | --- | --- | --- | --- | --- | --- | --- |
| CC(C)n1c(=O)c(C(=O)NC2CC3CCC(C2)N3CCCO)cc2ccccc21 (stereo not drawn) [Compound 5, Endo-N-(8-(3-hydroxypropyl)-8-azabicyclo[3.2.1]oct-3-yl)-1-isopropyl-2-oxo-1,2-dihydro-3-quinolinecarboxamide] | > 10 µM | > 10 µM | 0.032 µM | 0.977 µM | 0.0422 ± 0.00629 µM | – | – |
| CCOCCN1C2CCC1CC(NC(=O)c1cc3ccccc3n(C(C)C)c1=O)C2 (stereo not drawn) [Compound 11, Endo-N-(8-(2-ethoxyethyl)-8-azabicyclo[3.2.1]oct-3-yl)-1-isopropyl-2-oxo-1,2-dihydro-3-quinolinecarboxamide] | > 10 µM | > 10 µM | 0.0187 µM | 0.423 µM | 0.0687 ± 0.00732 µM | – | – |
| COCCN1[C@@H]2CC[C@H]1C[C@@H](NC(=O)c1cc3ccccc3n(C(C)C)c1=O)C2 [Compound 10, endo-N-(8-(2-methoxyethyl)-8-azabicyclo[3.2.1]oct-3-yl)-1-isopropyl-2-oxo-1,2-dihydro-3-quinolinecarboxamide hydrochloride] | > 10 µM | > 10 µM | 0.015 µM | 0.811 µM | 0.0785 ± 0.0146 µM | – | – |
| COc1cc(N)c(Cl)cc1C(=O)N[C@@H]1CCN(CCCOc2ccc(F)cc2)C[C@@H]1OC (relative stereo) [Comparative Compound 1, Cisapride, reference compound] | – | – | – | – | – | 0.0647 µM | accelerate the gastrointestinal motor function and improve the gastrointestinal conditions |
| CC(C)n1c(=O)c(C(=O)N[C@H]2C[C@H]3CC[C@@H](C2)N3CCN2CCOCC2)cc2ccccc21 [Compound 20, endo-N-(8-(2-morpholinoethyl)-8-azabicyclo[3.2.1]oct-3-yl)-1-isopropyl-2-oxo-1,2-dihydro-3-quinolinecarboxamide] | > 10 µM | > 10 µM | 0.0255 µM | 0.509 µM | 0.0781 ± 0.0145 µM | – | – |
| COc1cc(N)c(Cl)cc1C(=O)NC1CCN2CCCC1C2 (centres unmarked) [renzapride] | – | – | – | – | – | – | accelerate the gastrointestinal motor function and improve the gastrointestinal conditions |
